Data: US9840509B2, “Heterocyclic compounds” (CADILA HEALTHCARE LIMITED, priority 2014, dated 2017)

Legend:
CYP 2C9 = molecular target: T1, CYP 2C9 (Homo sapiens, UniProt P11712); assay: CYP inhibition in human liver microsomes, 2C9; type: in vitro ADME; conditions: pH 7.4, @ 10 μM concn
T1 construct: from tissue; host or cells: human liver microsomes
Description: (§1) CYP Inhibition Studies: CYP inhibition studies were performed with test compounds, at two concentrations ([…] and 10 μM), using human liver microsomes (Yao, M., Zhu, M., Sinz, M. W., Zhang, H., Humphreys, W. F., Rodrigues, A. D and Dai, R., Journal of Pharmaceutical and Biomedical Analysis, 2007, 44, 211-223; Walsky, R. L and Obach, R. S., Drug Metab. Dispos., 2004, 32, 647-660). Human liver microsomes were mixed with 100 mM phosphate buffer (pH 7.4) and probe substrate and warmed to […] in microcentrifuge tubes. Aliquots of this mixture (499 μL) were transferred to each pre-labeled microcentrifuge tubes, followed by addition of the 1 μL of inhibitors (test compound/CYP-specific positive control inhibitor) or control solvent (DMSO). Aliquots of this mixture (90 μL) were transferred to each pre-labeled microcentrifuge tubes in duplicate. Final solvent concentrations were 0.2% (v/v) or less. Incubations were commenced with the addition of 10 μL NADPH stock (assay concentration, 1 mM) to a final incubation volume of 100 μL and incubated in shaking water bath (at 37° C. and 100 rpm), for the period defined in Tables 1. Incubations were terminated by addition of 400 μL of termination solvent (CH3CN) containing internal standard. The terminated samples were vortex-mixed, centrifuged at 10000 rpm for 5 min and supernatant transferred into HPLC vials for LC-MS/MS analysis to monitor metabolites produced by marker CYP reactions. […] Animals

CYP 2D6 = molecular target: T2, CYP 2D6 (Homo sapiens, UniProt P10635); assay: CYP inhibition in human liver microsomes, 2D6; type: in vitro ADME; conditions: pH 7.4, @ 10 μM concn
T2 construct: from tissue; host or cells: human liver microsomes
T2 sequence (P10635 whole entry): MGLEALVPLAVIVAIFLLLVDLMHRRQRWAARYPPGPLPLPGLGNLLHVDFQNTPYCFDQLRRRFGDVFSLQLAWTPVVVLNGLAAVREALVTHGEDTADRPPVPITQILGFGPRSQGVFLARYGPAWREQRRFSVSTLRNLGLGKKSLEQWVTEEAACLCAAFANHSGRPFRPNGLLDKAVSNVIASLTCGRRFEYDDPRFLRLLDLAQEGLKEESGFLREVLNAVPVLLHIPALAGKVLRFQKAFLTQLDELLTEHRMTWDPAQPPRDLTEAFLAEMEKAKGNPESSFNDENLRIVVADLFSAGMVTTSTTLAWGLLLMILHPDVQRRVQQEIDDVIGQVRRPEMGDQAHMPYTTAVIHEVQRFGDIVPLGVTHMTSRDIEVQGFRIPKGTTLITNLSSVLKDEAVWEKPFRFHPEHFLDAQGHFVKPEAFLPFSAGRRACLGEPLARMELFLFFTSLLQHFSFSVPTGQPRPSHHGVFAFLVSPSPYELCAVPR
Description: as §1

CYP 2C8 = molecular target: T3, CYP 2C8 (Homo sapiens, UniProt P10632); assay: CYP inhibition in human liver microsomes, 2C8; type: in vitro ADME; conditions: pH 7.4, @ 10 μM concn
T3 construct: from tissue; host or cells: human liver microsomes
T3 sequence (P10632 1-490): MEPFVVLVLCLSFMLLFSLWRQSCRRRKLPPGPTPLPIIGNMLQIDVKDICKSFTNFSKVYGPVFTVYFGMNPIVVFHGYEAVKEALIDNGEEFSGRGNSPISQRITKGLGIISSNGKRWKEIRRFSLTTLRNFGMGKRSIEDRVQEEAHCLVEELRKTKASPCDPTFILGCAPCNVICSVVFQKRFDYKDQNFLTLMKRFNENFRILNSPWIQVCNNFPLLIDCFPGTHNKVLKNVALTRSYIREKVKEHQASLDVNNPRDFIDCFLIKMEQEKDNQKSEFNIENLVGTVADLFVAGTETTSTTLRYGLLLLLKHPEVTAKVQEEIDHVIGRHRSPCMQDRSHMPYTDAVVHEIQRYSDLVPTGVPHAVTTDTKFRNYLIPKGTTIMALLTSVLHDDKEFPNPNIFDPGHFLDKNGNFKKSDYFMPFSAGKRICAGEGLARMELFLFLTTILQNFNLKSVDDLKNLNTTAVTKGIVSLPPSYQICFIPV
Description: as §1

CYP 2C19 = molecular target: T4, CYP 2C19 (Homo sapiens, UniProt P33261); assay: CYP inhibition in human liver microsomes, 2C19; type: in vitro ADME; conditions: pH 7.4, @ 10 μM concn
T4 construct: from tissue; host or cells: human liver microsomes
T4 sequence (P33261 whole entry): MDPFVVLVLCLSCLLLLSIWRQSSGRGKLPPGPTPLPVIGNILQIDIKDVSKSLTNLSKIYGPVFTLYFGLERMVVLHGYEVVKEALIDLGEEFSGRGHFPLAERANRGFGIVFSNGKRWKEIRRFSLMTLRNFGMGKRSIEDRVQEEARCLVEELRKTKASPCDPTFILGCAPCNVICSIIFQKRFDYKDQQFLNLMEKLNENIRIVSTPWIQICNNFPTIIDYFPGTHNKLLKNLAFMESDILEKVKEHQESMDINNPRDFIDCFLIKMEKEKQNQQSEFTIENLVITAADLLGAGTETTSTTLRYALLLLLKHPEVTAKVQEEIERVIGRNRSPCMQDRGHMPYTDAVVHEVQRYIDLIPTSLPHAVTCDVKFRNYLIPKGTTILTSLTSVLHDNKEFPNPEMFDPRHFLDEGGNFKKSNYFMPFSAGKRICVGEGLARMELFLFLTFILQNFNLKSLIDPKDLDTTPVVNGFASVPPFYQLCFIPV
Description: as §1

[1] = molecular target: T5, recombinant purified human BTK (Homo sapiens, UniProt Q06187); assay: In vitro BTK kinase assay on ADP Glo platform; type: biochemical; conditions: 2 hr room temperature, read-out: In-vitro BTK inhibitory activity: IC50
T5 construct: purchased SignalChem, USA
T5 sequence (Q06187 whole entry): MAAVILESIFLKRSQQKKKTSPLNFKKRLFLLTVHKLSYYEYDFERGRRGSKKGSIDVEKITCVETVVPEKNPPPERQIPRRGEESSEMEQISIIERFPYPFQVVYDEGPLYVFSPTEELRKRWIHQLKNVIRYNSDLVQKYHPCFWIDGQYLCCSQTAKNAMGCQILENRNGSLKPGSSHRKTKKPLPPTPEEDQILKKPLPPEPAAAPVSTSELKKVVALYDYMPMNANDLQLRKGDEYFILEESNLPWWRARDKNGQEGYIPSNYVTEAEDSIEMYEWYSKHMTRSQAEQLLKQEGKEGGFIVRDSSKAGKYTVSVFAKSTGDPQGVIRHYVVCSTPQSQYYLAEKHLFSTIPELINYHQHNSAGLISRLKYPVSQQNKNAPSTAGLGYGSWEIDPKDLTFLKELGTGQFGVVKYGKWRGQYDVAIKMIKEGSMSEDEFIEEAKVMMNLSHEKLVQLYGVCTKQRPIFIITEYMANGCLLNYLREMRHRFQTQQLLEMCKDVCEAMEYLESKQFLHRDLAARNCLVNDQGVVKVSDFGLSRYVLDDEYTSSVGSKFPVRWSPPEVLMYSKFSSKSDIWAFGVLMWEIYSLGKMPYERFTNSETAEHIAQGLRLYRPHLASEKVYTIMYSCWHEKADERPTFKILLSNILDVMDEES
Description: Testing of Compounds of the Invention Biological Studies: In vitro BTK Inhibitory Activity Assay:
In vitro BTK inhibitory activity of test compounds were screened using BTK kinase assay on ADP Glo platform (Li, H., Totoritis, R. D., Lor, L. A., Schwartz, B., Caprioli, P., Jurewicz, A. J and Zhang, G., Assay Drug Dev. Technol., 2009, 7(6), 598-605). Briefly, fixed amount of recombinant purified human BTK (3 ng/reaction from SignalChem, USA) were incubated with increasing concentration of test compounds, in 1× kinase reaction buffer (40 mM Tris-Cl, pH7.5, 20 mM MgCl2, 2 mM MnCl2, 0.1 mg/ml BSA and 50 μM DTT). Enzymatic reaction was initiated by adding a substrate cocktail containing 50 µM of ATP (final concentration) and […] of polyGln4Tyr1 (Signal Chem) in total 25 μl of reaction, in round bottom white 96 well plate. The reaction mixture was incubated at room temperature for 2 hr. After 2 hr of incubation, 10 μl of the reaction mix was mixed with […] of ADP Glo reagent, in another round bottom white 96 well plate and incubated at room temperature for 40 min. This was followed by addition of kinase detection reagent (20 μl per reaction) and incubation at room temperature for 30 min. Finally, plate was read for luminescence at an integration time of 500 millisecond per well. Data were plotted taking Enzyme with no inhibitor set as the 100% kinase activity and for dose response curve, % Kinase activity was plotted against conc on Log scale and IC50 was determined by non linear curve fitting method using GraphPad Prism software 6. The in vitro BTK inhibitory activity (IC50) for representative compounds are listed in […]

CYP 3A4 = molecular target: T6, CYP 3A4 (Homo sapiens, UniProt P08684); assay: CYP inhibition in human liver microsomes, 3A4; type: in vitro ADME; conditions: pH 7.4, @ 10 μM concn
T6 construct: from tissue; host or cells: human liver microsomes
T6 sequence (P08684 whole entry): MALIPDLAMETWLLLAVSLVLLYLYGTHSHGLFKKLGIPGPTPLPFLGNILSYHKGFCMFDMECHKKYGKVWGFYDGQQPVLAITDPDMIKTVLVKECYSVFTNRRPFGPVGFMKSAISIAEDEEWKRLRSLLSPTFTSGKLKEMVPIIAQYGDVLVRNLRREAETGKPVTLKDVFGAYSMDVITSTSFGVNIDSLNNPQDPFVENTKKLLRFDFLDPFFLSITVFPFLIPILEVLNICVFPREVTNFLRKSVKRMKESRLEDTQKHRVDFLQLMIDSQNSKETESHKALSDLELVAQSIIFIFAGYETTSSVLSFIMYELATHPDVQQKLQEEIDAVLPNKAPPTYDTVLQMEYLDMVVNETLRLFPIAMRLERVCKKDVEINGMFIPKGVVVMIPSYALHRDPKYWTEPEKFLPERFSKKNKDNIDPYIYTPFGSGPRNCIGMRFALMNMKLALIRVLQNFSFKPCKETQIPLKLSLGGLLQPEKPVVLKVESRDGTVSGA
Description: as §1

CYP 1A2 = molecular target: T7, CYP 1A2 (Homo sapiens, UniProt P05177); assay: CYP inhibition in human liver microsomes, 1A2; type: in vitro ADME; conditions: pH 7.4, @ 10 μM concn
T7 construct: from tissue; host or cells: human liver microsomes
T7 sequence (P05177 1-516): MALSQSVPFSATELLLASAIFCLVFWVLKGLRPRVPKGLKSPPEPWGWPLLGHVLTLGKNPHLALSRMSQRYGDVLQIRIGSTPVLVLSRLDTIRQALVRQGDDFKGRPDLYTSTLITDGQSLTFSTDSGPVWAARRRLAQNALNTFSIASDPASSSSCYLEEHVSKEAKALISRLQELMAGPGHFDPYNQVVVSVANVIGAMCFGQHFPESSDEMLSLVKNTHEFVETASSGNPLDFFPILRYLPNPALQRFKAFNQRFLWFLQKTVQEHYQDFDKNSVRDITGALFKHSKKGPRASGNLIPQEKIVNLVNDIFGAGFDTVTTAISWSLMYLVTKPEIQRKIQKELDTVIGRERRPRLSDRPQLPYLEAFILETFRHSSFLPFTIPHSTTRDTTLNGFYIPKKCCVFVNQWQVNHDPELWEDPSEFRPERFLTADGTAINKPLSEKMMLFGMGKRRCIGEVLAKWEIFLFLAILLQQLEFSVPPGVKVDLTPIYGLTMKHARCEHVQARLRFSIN
Description: as §1

T1 sequence (P11712 whole entry): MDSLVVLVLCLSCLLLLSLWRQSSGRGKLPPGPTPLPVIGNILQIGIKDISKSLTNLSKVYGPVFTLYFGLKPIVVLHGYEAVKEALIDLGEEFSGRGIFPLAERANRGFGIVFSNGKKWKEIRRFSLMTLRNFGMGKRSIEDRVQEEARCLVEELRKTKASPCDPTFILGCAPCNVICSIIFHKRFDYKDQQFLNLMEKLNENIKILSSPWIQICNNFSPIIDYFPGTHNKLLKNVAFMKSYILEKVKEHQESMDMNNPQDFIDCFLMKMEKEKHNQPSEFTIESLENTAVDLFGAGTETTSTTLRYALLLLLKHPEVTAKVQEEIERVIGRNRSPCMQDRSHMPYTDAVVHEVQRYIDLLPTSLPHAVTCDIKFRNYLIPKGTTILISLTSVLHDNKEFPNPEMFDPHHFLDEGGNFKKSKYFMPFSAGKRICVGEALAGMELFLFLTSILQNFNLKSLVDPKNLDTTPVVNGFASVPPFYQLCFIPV

Row | Structure (SMILES) | inhibition at 10 μM (CYP 2C9) [%] | inhibition at 10 μM (CYP 2D6) [%] | inhibition at 10 μM (CYP 2C8) [%] | inhibition at 10 μM (CYP 2C19) [%] | IC50 [1] [nM] | inhibition at 10 μM (CYP 3A4) [%] | inhibition at 10 μM (CYP 1A2) [%]
1 | C=CC(=O)N1CC2CC(n3nc(-c4ccc5ocnc5c4)c4c(N)ncnc43)CC2C1 (centres unmarked) [Compound 22, 1-(5-(4-amino-3-(benzo[d]oxazol-5-yl)-1H-pyrazolo[3,4-d]pyrimidin-1-yl)hexahydrocyclopenta[c]pyrrol-2(1H)-yl)prop-2-en-1-one] | < 50 | > 50 | < 50 | < 50 | 40 | < 50 | < 50
2 | C=CC(=O)N1CC2CC(n3nc(-c4ccc5oc(-c6ccccc6)nc5c4)c4c(N)ncnc43)CC2C1 (centres unmarked) [Compound 23, 1-(5-(4-amino-3-(2-phenylbenzo[d]oxazol-5-yl)-1H-pyrazolo[3,4-d]pyrimidin-1-yl)hexahydrocyclopenta[c]pyrrol-2(1H)-yl)prop-2-en-1-one] | > 50 | < 50 | > 50 | < 50 | 48 | > 50 | < 50
3 | CN(C)C/C=C/C(=O)N1CC2CC(n3nc(-c4ccc(Oc5ccccc5)cc4)c4c(N)ncnc43)CC2C1 (centres unmarked) [Compound 24, (E)-1-(5-(4-amino-3-(4-phenoxyphenyl)-1H-pyrazolo[3,4-d]pyrimidin-1-yl)hexahydrocyclopenta[c]pyrrol-2(1H)-yl)-4-(dimethylamino)but-2-en-1-one] | < 50 | < 50 | < 50 | < 50 | 2.5 | < 50 | < 50
4 | C=CC(=O)N1CC2CC(n3nc(-c4ccc(-c5nnc(-c6ccccn6)o5)cc4)c4c(N)ncnc43)CC2C1 (centres unmarked) [Compound 26, 1-(5-(4-amino-3-(4-(5-(pyridin-2-yl)-1,3,4-oxadiazol-2-yl)phenyl)-1H-pyrazolo[3,4-d]pyrimidin-1-yl)hexahydrocyclopenta[c]pyrrol-2(1H)-yl)prop-2-en-1-one] | < 50 | < 50 | < 50 | < 50 | 1.1 | < 50 | < 50
5 | C=CC(=O)N1CC2CC(n3c(Br)c(-c4ccc(Oc5ccccc5)cc4)c4c(N)ncnc43)CC2C1 (centres unmarked) [Compound 27, 1-(5-(4-amino-6-bromo-5-(4-phenoxyphenyl)-7H-pyrrolo[2,3-d]pyrimidin-7-yl)hexahydrocyclopenta[c]pyrrol-2(1H)-yl)prop-2-en-1-one] | < 50 | < 50 | < 50 | < 50 | 1.6 | < 50 | < 50
6 | N#C/C(=C\C1CC1)C(=O)N1CC2CC(n3nc(-c4ccc(Oc5ccccc5)cc4)c4c(N)ncnc43)CC2C1 (centres unmarked) [Compound 28, (E)-2-(5-(4-amino-3-(4-phenoxyphenyl)-1H-pyrazolo[3,4-d]pyrimidin-1-yl)octahydrocyclopenta[c]pyrrole-2-carbonyl)-3-cyclopropylacrylonitrile] | > 50 | < 50 | < 50 | < 50 | 16 | > 50 | < 50
7 | C=CC(=O)N1CC2CC(n3nc(-c4ccc(C(=O)Nc5cc(C)ccn5)c(OC)c4)c4c(N)ncnc43)CC2C1 (centres unmarked) [Compound 29, 4-(1-(2-acryloyloctahydrocyclopenta[c]pyrrol-5-yl)-4-amino-1H-pyrazolo[3,4-d]pyrimidin-3-yl)-2-methoxy-N-(4-methylpyridin-2-yl)benzamide] | < 50 | < 50 | < 50 | < 50 | 1.2 | < 50 | < 50
8 | C=CC(=O)N1CC2CC(n3nc(-c4ccc(C(=O)Nc5cc(C)ccn5)cc4)c4c(N)ncnc43)CC2C1 (centres unmarked) [Compound 30, 4-(1-(2-acryloyloctahydrocyclopenta[c]pyrrol-5-yl)-4-amino-1H-pyrazolo[3,4-d]pyrimidin-3-yl)-N-(4-methylpyridin-2-yl)benzamide] | < 50 | < 50 | < 50 | < 50 | 6 | < 50 | < 50
9 | C=CC(=O)N1CC2CC(n3cc(-c4ccc(Oc5ccccc5)cc4)c4c(N)ncnc43)CC2C1 (centres unmarked) [Compound 31, 1-(5-(4-amino-5-(4-phenoxyphenyl)-7H-pyrrolo[2,3-d]pyrimidin-7-yl)hexahydrocyclopenta[c]pyrrol-2(1H)-yl)prop-2-en-1-one] | < 50 | < 50 | < 50 | < 50 | 0.6 | < 50 | < 50
10 | C=CS(=O)(=O)N1CC2CC(n3c(=O)n(-c4ccc(Oc5ccccc5)cc4)c4c(N)ncnc43)CC2C1 (centres unmarked) [Compound 33, 6-amino-7-(4-phenoxyphenyl)-9-(2-(vinylsulfonyl)octahydrocyclopenta[c]pyrrol-5-yl)-7H-purin-8(9H)-one] | < 50 | < 50 | < 50 | < 50 | 1.5 | < 50 | < 50
11 | C=CC(=O)N1CC2CC(n3nc(-c4ccc(C(=O)Nc5nc6ccccc6s5)cc4)c4c(N)ncnc43)CC2C1 (centres unmarked) [Compound 34, 4-(1-(2-acryloyloctahydrocyclopenta[c]pyrrol-5-yl)-4-amino-1H-pyrazolo[3,4-d]pyrimidin-3-yl)-N-(benzo[d]thiazol-2-yl)benzamide] | < 50 | < 50 | < 50 | > 50 | 359 | > 50 | > 50
